Measurements: US20100173930A1, “Certain Chemical Entities, Compositions and Methods” (priority 2006, published 2010)

tested on: SKM MYOFIBRIL; test: SKM myofibril AC1.4 (ATPase, PK/LDH coupled enzyme system); assay type: biochemical; conditions: screen at pCa=6.5; note: unit not given here

SMILES | SKM MYOFIBRIL AC1.4 (median)
COc1cccc(-c2nc3ccccn3c2NCc2cccc(Cl)c2)c1 [[(3-chlorophenyl)methyl][2-(3-methoxyphenyl)(4-hydroimidazo[1,2-a]pyridin-3-yl)]amine] | 35.6445
Oc1ccccc1-c1nc2ccccn2c1NCc1cccc(Cl)c1 [2-(3-{[(3-chlorophenyl)methyl]amino}-4-hydroimidazo[1,2-a]pyridin-2-yl)phenol] | 4.2459
COc1cccc(CNc2c(-c3ccccc3O)nc3cc(C)ccn23)c1 [2-(3-{[(3-methoxyphenyl)methyl]amino}-7-methyl-4-hydroimidazo[1,2-a]pyridin-2-yl)phenol] | 10.2909
Cc1ccn2c(NCc3ccc(F)cc3F)c(-c3ccccc3O)nc2c1 [2-(3-{[(2,4-difluorophenyl)methyl]amino}-7-methyl-4-hydroimidazo[1,2-a]pyridin-2-yl)phenol] | 0.959
Cc1ccn2c(NC3CCCC3)c(-c3ccccc3O)nc2c1 [2-[3-(cyclopentylamino)-7-methyl-4-hydroimidazo[1,2-a]pyridin-2-yl]phenol] | 11.1785
Fc1cccc(-c2nc3ccccn3c2NCc2cccc(Cl)c2)c1 [[(3-chlorophenyl)methyl][2-(3-fluorophenyl)(4-hydroimidazo[1,2-a]pyridin-3-yl)]amine] | 43.8606
O=C(O)c1ccc2nc(-c3ccccc3O)c(NCc3cccc(Cl)c3)n2c1 [3-{[(3-chlorophenyl)methyl]amino}-2-(2-hydroxyphenyl)-4-hydroimidazo[1,2-a]pyridine-6-carboxylic acid] | 15.043
COCCNC(=O)c1ccc2nc(-c3ccccc3O)c(NCc3ccc(F)cc3)n2c1 [(3-{[(4-fluorophenyl)methyl]amino}-2-(2-hydroxyphenyl)(4-hydroimidazo[1,2-a]pyridin-6-yl))-N-(2-methoxyethyl)carboxamide] | 4.3059
Oc1ccccc1-c1nc2cccc(Br)n2c1NCc1cccc(Cl)c1 [2-(5-bromo-3-{[(3-chlorophenyl)methyl]amino}-4-hydroimidazo[1,2-a]pyridin-2-yl)phenol] | 12.5914
COC(=O)c1ccc2nc(-c3ccccc3O)c(NCc3cccc(Cl)c3)n2c1 [methyl 3-{[(3-chlorophenyl)methyl]amino}-2-(2-hydroxyphenyl)-4-hydroimidazo[1,2-a]pyridine-6-carboxylate] | 2.0174
COc1ccccc1CNc1c(-c2ccccc2O)nc2cc(C)ccn12 [2-(3-{[(2-methoxyphenyl)methyl]amino}-7-methyl-4-hydroimidazo[1,2-a]pyridin-2-yl)phenol] | 1.9683
Oc1ccccc1-c1nc2ccc(Br)cn2c1NCc1ccc(F)cc1 [2-(6-bromo-3-{[(4-fluorophenyl)methyl]amino}-4-hydroimidazo[1,2-a]pyridin-2-yl)phenol] | 5.6018
NC(=O)c1ccc2nc(-c3ccccc3O)c(NCc3cccc(Cl)c3)n2c1 [3-{[(3-chlorophenyl)methyl]amino}-2-(2-hydroxyphenyl)-4-hydroimidazo[1,2-a]pyridine-6-carboxamide] | 1.2788
NCc1ccc2nc(-c3ccccc3O)c(NCc3cccc(Cl)c3)n2c1 [2-(6-(aminomethyl)-3-{[(3-chlorophenyl)methyl]amino}-4-hydroimidazo[1,2-a]pyridin-2-yl)phenol] | 0.2349
C[C@H](Nc1c(-c2ccc(O)cc2)nc2ccccn12)C(C)(C)C [4-{3-[((1S)-1,2,2-trimethylpropyl)amino]-4-hydroimidazo[1,2-a]pyridin-2-yl}phenol] | 11.8489
Cc1ccn2c(NCc3cccc(Cl)c3)c(-c3ccc(Cl)cc3O)nc2c1 [5-chloro-2-(3-{[(3-chlorophenyl)methyl]amino}-7-methyl(4-hydroimidazo[1,2-a]pyridin-2-yl))phenol] | 20.0045

SMILES | SKM MYOFIBRIL AC1.4 (median)
COCCNC(=O)c1ccc2nc(-c3ccccc3O)c(NCc3cccc(Cl)c3)n2c1 [(3-{[(3-chlorophenyl)methyl]amino}-2-(2-hydroxyphenyl)(4-hydroimidazo[1,2-a]pyridin-6-yl))-N-(2-methoxyethyl)carboxamide] | 2.0573
CCc1ccn2c(NCc3cccc(Cl)c3)c(-c3ccccc3O)nc2c1 [2-(3-{[(3-chlorophenyl)methyl]amino}-7-ethyl-4-hydroimidazo[1,2-a]pyridin-2-yl)phenol] | 0.9168
Oc1ccccc1-c1nc2ccccn2c1NCc1ccc(F)cc1 [2-(3-{[(4-fluorophenyl)methyl]amino}-4-hydroimidazo[1,2-a]pyridin-2-yl)phenol] | 3.2661
Oc1ccc(-c2nc3ccc(-c4ccccc4)cn3c2NCc2ccc(F)cc2)cc1 [4-(3-{[(4-fluorophenyl)methyl]amino}-6-phenyl-4-hydroimidazo[1,2-a]pyridin-2-yl)phenol] | 15.7257
CCc1ccn2c(NC3CCCC3)c(-c3ccc(O)cc3)nc2c1 [4-[3-(cyclopentylamino)-7-ethyl-4-hydroimidazo[1,2-a]pyridin-2-yl]phenol] | 7.5674
Oc1ccc(-c2nc3ccccn3c2NC2CCCC2)cc1 [4-[3-(cyclopentylamino)-4-hydroimidazo[1,2-a]pyridin-2-yl]phenol] | 19.8598
CC(C)(O)c1ccc2nc(-c3ccccc3O)c(NCc3cccc(Cl)c3)n2c1 [2-(3-{[(3-chlorophenyl)methyl]amino}-6-(1-hydroxy-isopropyl)-4-hydroimidazo[1,2-a]pyridin-2-yl)phenol] | 2.0993
Cc1cccc2cc3c(nc12)OCC(=O)N(Cc1ccc(Cl)cc1)C3 [4-[(4-chlorophenyl)methyl]-10-methyl-2H,5H-1,4-oxazaperhydroepino[7,6-b]quinolin-3-one] | 18.1529
CNC(=O)c1ccc2nc(-c3ccccc3O)c(NCc3cccc(Cl)c3)n2c1 [(3-{[(3-chlorophenyl)methyl]amino}-2-(2-hydroxyphenyl)(4-hydroimidazo[1,2-a]pyridin-6-yl))-N-methylcarboxamide] | 1.2348
Oc1ccc(-c2nc3ccccn3c2NCc2ccccc2Cl)cc1 [4-(3-{[(2-chlorophenyl)methyl]amino}-4-hydroimidazo[1,2-a]pyridin-2-yl)phenol] | 17.7003
Oc1ccc(-c2nc3ccccn3c2NCc2ccccc2)cc1 [4-{3-[benzylamino]-4-hydroimidazo[1,2-a]pyridin-2-yl}phenol] | 27.3665
Cc1cccn2c(NC3CCCCC3)c(-c3ccc(O)cc3)nc12 [4-[3-(cyclohexylamino)-8-methyl-4-hydroimidazo[1,2-a]pyridin-2-yl]phenol] | 8.8767
Oc1ccc(-c2nc3ccc(Cl)cn3c2NCc2ccc(F)cc2)cc1 [4-(6-chloro-3-{[(4-fluorophenyl)methyl]amino}-4-hydroimidazo[1,2-a]pyridin-2-yl)phenol] | 14.9602
Cc1ccn2c(NCc3ccc(F)cn3)c(-c3ccccc3O)nc2c1 [2-(3-{[(5-fluoro(2-pyridyl))methyl]amino}-7-methyl-4-hydroimidazo[1,2-a]pyridin-2-yl)phenol] | 7.3934
Oc1ccccc1-c1nc2c(Br)cccn2c1NCc1cccc(Cl)c1 [2-(8-bromo-3-{[(3-chlorophenyl)methyl]amino}-4-hydroimidazo[1,2-a]pyridin-2-yl)phenol] | 13.2238
